Read-outs that look alike come from different tables or passages of the source.
How the values were obtained:
[1] = test system: Phytophthora infestans (PHYTIN); assay: microbe, parasite or virus in culture; assay type: cell-based; conditions: Phytophthora infestans, read-out: PHYTIN in vitro Growth Inhibition
[2] = test system: Magnaporthe grisea (Pyricularia oryzae—PYRIOR); assay: microbe, parasite or virus in culture; assay type: cell-based; conditions: Pyricularia oryzae, read-out: PYRIOR in vitro Growth Inhibition
[3] = test system: Puccinia recondita—PUCCRT; assay: Brown Rust of Wheat, in vivo whole plant, 24 Hour Protectant; conditions: Puccinia, control of fungal infection vs untreated plants, read-out: PUCCRT in vivo 1 Day Protectant
[4] = test system: Ustilago maydis (USTIMA); assay: microbe, parasite or virus in culture; assay type: cell-based; conditions: Mycosarcoma maydis, read-out: USTIMA in vitro Growth Inhibition
[5] = test system: Rhizoctonia solani (RHIZSO); assay: microbe, parasite or virus in culture; assay type: cell-based; conditions: Rhizoctonia solani, read-out: RHIZSO in vitro Growth Inhibition
[6] = test system: Stagonospora nodorum (Leptosphaeria nodorum—LEPTNO); assay: In vitro fungal growth inhibition, Stagonospora nodorum (LEPTNO); assay type: cell-based; conditions: Leptosphaeria, read-out: LEPTNO in vitro Growth Inhibition
[7] = test system: Leptosphaeria nodorum—LEPTNO; assay: Glume Blotch of Wheat, in vivo whole plant, 24 Hour Protectant; conditions: control of fungal infection vs untreated plants; for pest or weed control at 100 ppm: Leptosphaeria, read-out: LEPTNO in vivo 1 Day Protectant
[8] = test system: Mycosphaerella graminicola (Septoria tritici—SEPTTR); assay: In vitro fungal growth inhibition, Mycosphaerella graminicola (SEPTTR); assay type: cell-based; conditions: Zymoseptoria tritici, read-out: SEPTTR in vitro Growth Inhibition
[9] = test system: Septoria tritici—SEPTTR; assay: Leaf Blotch of Wheat, in vivo whole plant, 24 Hour Protectant; conditions: Zymoseptoria tritici, 24 h, control of fungal infection vs untreated plants, read-out: SEPTTR in vivo 1 Day Protectant
[10] = test system: Erysiphe graminis—ERYSGT; assay: Powdery Mildew of Wheat, in vivo whole plant, 24 Hour Protectant; conditions: Erysiphe, control of fungal infection vs untreated plants, read-out: ERYSGT in vivo 1 Day Protectant
[11] = test system: Phytophthora infestans—PHYTIN; assay: whole plant or invertebrate; assay type: in vivo; conditions: for pest or weed control at 100 ppm: Phytophthora, in Solanum lycopersicum, 24 h, read-out: PHYTIN in vivo 1 Day Protectant
[12] = wheat plants sprayed at 100 ppm, inoculated after 24 hours
[13] = 100 ppm spray, wheat, 24 hour protectant
[14] = 100 ppm spray, 24 hour protectant, wheat

Row | SMILES | inhibition at 25 ppm [1] | inhibition at 25 ppm [2] | pest or weed control at 100 ppm [3, 12] | inhibition at 25 ppm [4] | inhibition at 25 ppm [5] | inhibition at 25 ppm ([6]; 25 ppm in the growth medium) | pest or weed control at 100 ppm [7, 12] | inhibition at 25 ppm ([8]; 25 ppm in the growth medium) | pest or weed control at 100 ppm [9, 12] | pest or weed control at 100 ppm [10, 12] | pest or weed control at 100 ppm [11] | pest or weed control at 100 ppm [3, 13] | inhibition at 25 ppm ([6]; 25 ppm in growth medium) | pest or weed control at 100 ppm [7, 13] | inhibition at 25 ppm ([8]; 25 ppm in growth medium) | pest or weed control at 100 ppm [9, 13] | pest or weed control at 100 ppm [10, 13] | also measured
1 | COc1ccnc(C(=O)NC2CC(C)(C)C(=O)C(C)(C)C2)c1OC(C)=O [Compound 575] | < 80% | < 80% | 25 to 74% | < 80% | < 80% | < 80% | 25 to 74% | < 80% | 25 to 74% | < 25% | < 25% |  |  |  |  |  |  | 
2 | COc1ccnc(C(=O)Nc2ccc(Oc3ccccc3Cl)cc2)c1O [Compound 441] | < 80% | < 80% |  | < 80% | < 80% |  |  |  |  |  | < 25% | < 25% | < 80% | < 25% | > 80% | < 25% | < 25% | 
3 | COc1ccnc(C(=O)Nc2cc(C)c(OC(=O)C(C)C)c(C)c2)c1O [Compound 455] | < 80% | < 80% |  | > 80% | < 80% |  |  |  |  |  | < 25% | < 25% | > 80% | 25 to 74% | < 80% | 25 to 74% | < 25% | 
4 | COc1cccc(Oc2ccc(NC(=O)c3nccc(OC)c3O)cc2)c1 [Compound 434] | < 80% | < 80% |  | < 80% | < 80% |  |  |  |  |  | < 25% | < 25% | > 80% | 25 to 74% | > 80% | < 25% | 25 to 74% | 
5 | O=C(Nc1ccc(Oc2cccc(C(F)(F)F)c2)cc1)c1nc(Br)ccc1O [Compound 498] | < 80% | < 80% | 25 to 74% | < 80% | < 80% | < 80% | < 25% | < 80% | 25 to 74% | < 25% | < 25% |  |  |  |  |  |  | 
6 | CC(C)C(=O)O[C@H]1[C@H](C)OC(=O)[C@@H](NC(=O)c2nsnc2O)COC(=O)[C@@H]1Cc1ccccc1 [Compound 553] | > 80% | > 80% | 25 to 74% | > 80% | > 80% | > 80% |  | > 80% | 25 to 74% | 25 to 74% |  |  |  |  |  |  |  | LEPTNO in vivo 1 Day Protectant [7, 12]: + +; PHYTIN in vivo 1 Day Protectant ([11]; tomato plants sprayed at 100 ppm, inoculated after 24 hours, control of fungal infection vs untreated plants): + +
7 | COc1ccc(CNC(=O)c2nc(Br)ccc2O)cc1 [Compound 482] | < 80% | < 80% | < 25% | < 80% | < 80% | < 80% | 25 to 74% | < 80% | 25 to 74% | < 25% | < 25% |  |  |  |  |  |  | 
8 | COc1ccnc(C(=O)NC2CC(C)(C)CC(C)(C(=O)OCCC(C)(C)C)C2)c1O (stereo not shown) [Compound 261] | > 80% | < 80% |  | < 80% | < 80% |  |  |  |  |  | 25 to 74% |  | > 80% |  | > 80% |  |  | pest or weed control at 100 ppm [3, 14]: 25 to 74%; pest or weed control at 100 ppm [7, 14]: 25 to 74%; pest or weed control at 100 ppm [9, 14]: 25 to 74%; pest or weed control at 100 ppm [10, 14]: < 25%

— patent publication US6706740B2, “Fungicidal heterocyclic aromatic amides and their compositions, methods of use and preparation” (Dow AgroSciences LLC, priority 1999, dated 2004)
